This note sets out measurements from patent US9463198B2, “Compositions and methods for reducing or preventing metastasis” (Infectious Disease Research Institute, priority 2013, dated 2016).

The subject of experiment [1] is MADB 106 tumor cells. In words: MADB 106 lung tumor retention (LTR) in F344 rats. It is filed as in vivo, F344 rat. The settings on record: for MADB 106 LTR, GLA vs PBS (time course): with epinephrine. The procedure:
GLA (IDRI, Seattle, Wash.), dissolved in stable emulsion (SE) (2000 μg/ml) was diluted in PBS for a final concentration of 3 μg/ml-200 μg/ml (depending on the relevant experiment). One-hundred μl from the chosen concentration were injected subcutaneously (s.c.) to each animal (0.3 μg-20 μg/animal), immediately, 4 h, 12 h, 24 h, 48 h, or 96 h prior to MADB106 tumor cell inoculation (depending on the relevant experiment).
MADB 106 tumor cells metastasize only to the lungs, and lung tumor retention (LTR), which is highly indicative of the number of metastases that would have developed weeks later, is dependent upon NK cells in this model. Additionally, because the metastatic process of MADB106 is sensitive to NK activity predominantly during the first 24 h following inoculation, LTR is more reflective of in vivo NK activity levels than the number of actual metastases. The MADB 106 cell line was maintained in monolayer cultures in complete media (RPMI-1640 media supplemented with 10% heat-inactivated fetal calf serum (FCS), 50 μg/mL of gentamicin, 2 mM of 1-glutamine, 0.1 mM of non-essential amino-acids, and 1 mM of sodium pyruvate, (Biological Industries, Kibbutz Biet Haemek, Israel) in 100% humidity, 5% CO2 at 37° C. Cells were removed from the culture flask with trypsin solution (0.25% in PBS), and were washed with complete media. This cell line was used for both in vivo assessment of lung tumor retention and in vitro examination of NK cytotoxicity.
Tumor cell DNA radiolabeling for assessment of LTR was accomplished by adding 0.5 μCi/ml of ^125Iododeoxyuridine (^125IDUR, Danyel Biotech, Rehovot, Israel) to the cell culture for 24 h. For tumor cell injection, rats were lightly anesthetized with isoflurane, and 4×10^5/kg MADB106 tumor cells in 2 ml/kg PBS containing 0.1% bovine serum albumin (BSA) were injected into their tail vein. Some of the experiments also employed an additional 0.5 ml s.c. injection of epinephrine (1.8 mg/kg in females and 0.6 mg/kg in males) dissolved in a slow-release emulsion (4 parts PBS, 3 parts mineral oil (Sigma, Rehovot, Israel), and 1 part mannide-monooleate (a non-specific surface active emulsifier, Sigma, Rehovot, Israel)), for the amplification of MADB 106 retention in the lungs, allowing better group distinction. For assessment of LTR, animals were sacrificed with CO2, their lungs were removed 24 h after inoculation with ^125IDUR-labeled tumor cells, and placed in a γ-counter to assess percent radioactivity retained in this organ. LTR was calculated using the following formula: (radioactivity count of lung−background radioactivity)×100/(radioactivity count of the total injected cell suspension−background radioactivity).
Seventy-five three months old F344 male rats were randomly divided into one of 7 experimental groups administered with PBS, SE, or GLA in a dose/animal of 0.3 μg, 0.7 μg, 2.5 μg, 10 μg, and 20 μg. Each animal was injected s.c. with 100 μl of drug according to its group assignment, and, 24 h later, MADB 106 cells were inoculated (as detailed in section 4 above). Each of these 7 groups was further sub-divided into two separate groups—one that was injected with epinephrine during tumor inoculation, and the second that was injected with vehicle. Twenty-four hours later, animals were sacrificed and lungs were extracted for LTR assessment (as detailed in section 4).
In the first experiment, 75 six-month old F344 male rats were randomly divided into one of 5 injection time points preceding tumor inoculation—0 h, 4 h, 12 h, 24 h, and 48 h. Each group was further sub-divided into one of three experimental drug groups—PBS, SE, and 2 μg GLA. Each animal was injected s.c. with 100 μl according to its relevant drug group, in its designated time point. At time 0 h, MADB106 cells were injected (as detailed in section 4), along with epinephrine. […]

The subject of experiment [2] is MADB 106 tumor cells. In words: Three week study of MADB106 metastases development in the lungs. It is filed as in vivo, F344 rat. The settings on record: male and female rats, 2 μg GLA s.c. 24 h before inoculation, counted three weeks later, GLA reducing the number. The procedure:
Eighty-six six-month old F344 rats (44 females) were divided into three experimental groups (2 μg GLA, SE, and PBS). Each animal was injected s.c. with 100 μl according to its group assignment. Twenty-four hrs later, animals were lightly anesthetized with isoflurane and 10^5 MADB 106 tumor cells (approximately 4×10^5/kg) were injected into their tail vein in 0.5 ml of PBS (supplemented with 0.1% BSA). Three weeks later, rats were killed, and their lungs removed and placed for 24 h in Bouin's solution (72% saturated picric acid solution, 23% formaldehyde (37% solution) and 5% glacial acetic acid). After being washed in ethanol, visible surface metastases were counted by a researcher uninformed of the origin of each lung.

Turning to `CNC[C@H](O)c1ccc(O)c(O)c1` [epinephrine, reference compound], the “effect of epinephrine on LTR” value in the experiment on MADB 106 tumor cells [1] (s.c. slow-release emulsion given along with MADB 106 cell inoculation) was “increasing LTR levels”.
For the compound glucopyranosyl lipid adjuvant [GLA], the “number of lung surface metastases, GLA vs SE” value in the experiment with MADB 106 tumor cells [2] (p<0.01) was “significant difference”. The “number of lung surface metastases, GLA vs PBS” value with MADB 106 tumor cells [2] (p<0.05) is on record as “significant difference”. Further, the “MADB 106 LTR, GLA vs PBS (time course)” value in the experiment on MADB 106 tumor cells [1] (female rats, 2 μg GLA s.c. 24 h before inoculation, p<0.05) was “significant difference”; in the experiment on MADB 106 tumor cells [1] (female rats, 2 μg GLA s.c. 48 h before inoculation, p<0.05), “significant difference”; in the experiment on MADB 106 tumor cells [1] (male rats, 2 μg GLA s.c. 4 h before inoculation, p<0.05) it was “significant difference”; with MADB 106 tumor cells [1] (male rats, 2 μg GLA s.c. 12 h before inoculation, p<0.0001) it was “significant difference”; with MADB 106 tumor cells [1] (male rats, 2 μg GLA s.c. 24 h before inoculation, p<0.0001), “significant difference”; in the experiment with MADB 106 tumor cells [1] (male rats, 2 μg GLA s.c. 48 h before inoculation, p<0.0001), “significant difference”. Besides, the “MADB 106 LTR in NK-depleted animals” value with MADB 106 tumor cells [1] (male rats, NK depletion by anti-NKR-P1 mAb, 2 μg GLA or SE s.c. 24 h before inoculation) is on record as “no effect”. Besides, the “MADB 106 LTR, additive effect of GLA over SE” value in the experiment with MADB 106 tumor cells [1] (male rats, epinephrine groups, 0.7 μg/animal s.c. 24 h before inoculation, p<0.05) is listed as “significant improvements”; with MADB 106 tumor cells [1] (male rats, epinephrine groups, 2.5 μg/animal s.c. 24 h before inoculation, p<0.01), “significant improvements”; in the experiment with MADB 106 tumor cells [1] (male rats, epinephrine groups, 10 μg/animal s.c. 24 h before inoculation, p<0.01), “significant improvements”; in the experiment with MADB 106 tumor cells [1] (male rats, epinephrine groups, 20 μg/animal s.c. 24 h before inoculation, p<0.001) it was “significant improvements”. In the experiment on MADB 106 tumor cells [1] (male rats, epinephrine groups, 0.3-20 μg/animal), the “reduction of the epinephrine effect on LTR, relation to dosage” value is listed as “positively correlated with its dosage”. For the same compound, the “MADB 106 LTR, GLA over PBS” value with MADB 106 tumor cells [1] (male rats, epinephrine groups, all GLA doses (0.3-20 μg/animal) s.c. 24 h before tumor inoculation, p<0.0001) is given as “significant improvement”; in the experiment with MADB 106 tumor cells [1] (male rats, vehicle (no epinephrine) groups, 0.7 μg/animal s.c. 24 h before inoculation, p<0.05), “significant improvement”; in the experiment with MADB 106 tumor cells [1] (male rats, vehicle (no epinephrine) groups, 2.5 μg/animal s.c. 24 h before inoculation, p<0.01) it was “significant improvement”; with MADB 106 tumor cells [1] (male rats, vehicle (no epinephrine) groups, 10 μg/animal s.c. 24 h before inoculation, p<0.05), “significant improvement”; in the experiment on MADB 106 tumor cells [1] (male rats, vehicle (no epinephrine) groups, 20 μg/animal s.c. 24 h before inoculation, p<0.01), “significant improvement”. Further, the “MADB 106 LTR, GLA vs PBS, no-depletion condition” value in the experiment on MADB 106 tumor cells [1] (male rats, no NK depletion, 2 μg GLA s.c. 24 h before inoculation, p<0.01) is “significant difference”. Further, the “dosage giving an additive effect for GLA over SE effects on LTR” value with MADB 106 tumor cells [1] (male rats, s.c. 24 h before inoculation) was at least 0.7 μg per animal.
